Results taken from patent US9113625B2, “Adjuvant for agricultural chemicals” (CJB Industries, Inc., priority 2009, dated 2015).

Assays:
Format in all cases: in vivo
[1] = system: Early Blight (Alternaria solani); assay: Evaluation of fungicide in the treatment of Early Blight on tomatoes; details: inoculated tomato plants; Chlorothalonil 2.5 pt/ac, no adjuvant; rated after one week
Protocol: This example evaluated the effectiveness of the fungicide chlorothalonil for the control of Early Blight on tomatoes. The fungicide was mixed with water in a spray tank at the listed rate treatment (A), or with a permeabilizer (B) and the degree of control of the Early Blight was evaluated. The tomato plants were inoculated with the fungi. The ratings were made after one week on the per cent leaves infected with Alternaria and also the number with severe damage—necrosis.

[2] = system: Bacterial Leaf Spot (Xanthomonas campestris); assay: Effectiveness of a bactericide on bacterial leaf spot on tomatoes; details: inoculated tomato plants; Copper 2#/acre, no adjuvant; rated after two weeks
Protocol: This example evaluated the effectiveness of the bactericide copper hydroxide for the control of bacterial leaf spot on tomatoes. The tomato plants were inoculated with the bacteria. The bactericide was mixed with water in a spray tank at the listed rate treatment (A), or with a permeabilizer (B) and the degree of control of the leaf spot was evaluated. The ratings were made after two weeks on the per cent leaves infected.

[3] = system: fireblight on Southern Crepe Myrtle; assay: Effectiveness of bactericide streptomycin at controlling fireblight; details: infected plants sprayed until wet; rated after two days; adjuvant (B) at 500:1 dilution
Protocol: This example evaluated the effectiveness of the bactericide streptomycin for the control of fireblight on Southern Crepe Myrtle. The bactericide was mixed with water in a spray tank at the listed rate treatment (A), or with a permeabilizer (B). The infected plants were treated with the bactericide by spraying until wet and the degree of control of the fireblight was evaluated. The ratings were made after two days on the rate required for control.

**Q.** For `N#Cc1c(Cl)c(Cl)c(Cl)c(C#N)c1Cl` [Chlorothalonil, chlorothalonil], which “Infected Leaflets” value [1] is on record?
**A.** 60%

**Q.** What about the “Infected Leaves” value [1] of the same compound?
**A.** 42%

**Q.** What about the “Leaves with >50% Necrosis” value [1] of the same compound?
**A.** 42%

**Q.** With `[Cu+2].[OH-].[OH-]` [Copper, copper hydroxide] as the compound, how does the “% Leaves Infected” value [2] read?
**A.** 63%

**Q.** For `[H]/N=C(/N)N[C@H]1[C@H](O)[C@@H](O)[C@H](O[C@@H]2O[C@@H](C)[C@](O)(C=O)[C@H]2O[C@@H]2O[C@@H](CO)[C@H](O)[C@@H](O)[C@@H]2NC)[C@@H](N/C(N)=N\[H])[C@@H]1O` [Streptomycin, streptomycin], which “Level of Control (rate required for control)” value [3] is on record?
**A.** 60 ppm
